Common to all, as to test: cell-based
One assay addresses turkey β1-AR V326^7.36A (Meleagris gallopavo, UniProt P07700, V326A). The protocol:
(§1) CHO cells (transfected with a control empty vector or wild-type or mutant turkey β1-AR) were plated onto six-well plates, and were pre-incubated with culture medium buffered with 0.5 mM IBMX for 30 min at 37 °C[20]. […] After culture medium removal, cells were treated with 0.1 M HCl for 10 minutes at room temperature. After centrifugation, the supernatant was used for cAMP quantification using the Direct Cyclic AMP Enzyme Immunoassay kit (Enzo Life Sciences). […] The cAMP assays were repeated three times, and the data are represented as mean ± SD of the three independent experiments. The analysis was done using the log(agonist) vs. response function of Prism 8 (GraphPad)[20].

A further assay concerns the target turkey β1-AR W117^3.28A (Meleagris gallopavo, UniProt P07700, W117A). The procedure: as §1
For a further assay, the target named is turkey β1-AR L101^2.64A (Meleagris gallopavo, UniProt P07700, L101A). The procedure: as §1
In the next assay the target is turkey β1-AR W330^7.40A (Meleagris gallopavo, UniProt P07700, W330A). Conditions: for cAMP level: Fig 3 source data, W330A. The procedure:
as §1

Another assay concerns the target turkey β1-AR T203^ECL2A (Meleagris gallopavo, UniProt P07700, T203A). The procedure: as §1
[1] abbreviates: CHO, 5 min, read-out: Efficacy (% of max cAMP level).

Structures are written as SMILES. Several values for one entry are separate records, joined by “and”; a condition that tells them apart may be missing. Equal entries are not always repeated.

The results in this text go back to paper PMC9283524 (Nature Communications, 2022).

Sequence of turkey β1-AR W330^7.40A (P07700 whole entry W330A): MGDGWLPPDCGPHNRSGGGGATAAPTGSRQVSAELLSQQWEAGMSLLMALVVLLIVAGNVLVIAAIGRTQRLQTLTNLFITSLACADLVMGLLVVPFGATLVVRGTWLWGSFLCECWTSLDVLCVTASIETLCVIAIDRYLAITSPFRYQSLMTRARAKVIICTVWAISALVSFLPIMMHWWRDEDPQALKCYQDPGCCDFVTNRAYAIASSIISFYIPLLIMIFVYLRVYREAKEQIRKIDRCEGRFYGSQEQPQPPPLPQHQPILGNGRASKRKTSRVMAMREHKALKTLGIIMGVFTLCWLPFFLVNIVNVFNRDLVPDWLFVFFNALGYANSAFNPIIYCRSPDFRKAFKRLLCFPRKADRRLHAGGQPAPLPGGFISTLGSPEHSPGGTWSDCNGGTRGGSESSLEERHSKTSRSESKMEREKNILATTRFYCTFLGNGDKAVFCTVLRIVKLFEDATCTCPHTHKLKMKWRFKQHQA
Sequence of turkey β1-AR L101^2.64A (P07700 whole entry L101A): as the sequence (P07700 whole entry W330A) above, with L101A, A330W counted along it
Sequence of turkey β1-AR V326^7.36A (P07700 whole entry V326A): as the sequence (P07700 whole entry W330A) above, with V326A, A330W counted along it
Sequence of turkey β1-AR T203^ECL2A (P07700 whole entry T203A): as the sequence (P07700 whole entry W330A) above, with T203A, A330W counted along it
Sequence of turkey β1-AR W117^3.28A (P07700 whole entry W117A): as the sequence (P07700 whole entry W330A) above, with W117A, A330W counted along it

For the molecule `CC(CCc1ccc(O)cc1)NCCc1ccc(O)c(O)c1` (centres unmarked) [Dobutamine, dobutamine], the EC50 at turkey β1-AR V326^7.36A was 7.59 µM; at turkey β1-AR W117^3.28A, 7.76 µM; on turkey β1-AR L101^2.64A it was 6.61 µM; on turkey β1-AR W330^7.40A, 2.95 µM; on turkey β1-AR T203^ECL2A it was 1.58 µM. For the same molecule, the Emax worked out at 38 ± 1.2% on turkey β1-AR V326^7.36A (setting [1]); 16 ± 0.8% at turkey β1-AR W117^3.28A (setting [1]); 37 ± 1.1% at turkey β1-AR L101^2.64A (setting [1]); 85 ± 0.8% at turkey β1-AR W330^7.40A (setting [1]); 99 ± 0.7% at turkey β1-AR T203^ECL2A (setting [1]). For the same molecule, the cAMP level on turkey β1-AR W330^7.40A (log[ligand] (M) -3) was 346 and 351 and 347; at turkey β1-AR W330^7.40A (log[ligand] (M) -4), 342 and 348 and 346; on turkey β1-AR W330^7.40A (log[ligand] (M) -5), 266 and 272 and 271; on turkey β1-AR W330^7.40A (log[ligand] (M) -6), 127 and 136 and 131; at turkey β1-AR W330^7.40A (log[ligand] (M) -7) it was 58 and 65 and 63; at turkey β1-AR W330^7.40A (log[ligand] (M) -8) it was 43 and 48. Further, the cAMP level on turkey β1-AR W330^7.40A (log[ligand] (M) -9) was 38 and 45 and 43.

As usually defined, the EC50 is the concentration giving half of the maximal effect.
